“Also recorded” adds a separate entry of the source.
Columns and labels:
[1] = tested on: collagen-induced arthritis; experiment: Collagen-induced arthritis (CIA) model; type: in vivo, mouse
Procedure: The compound of Example 10 was tested in the mouse CIA model, which has many immunologic and pathologic similarities to human rheumatoid arthritis (See Trentham, D. E., et al., supra). Arthritis was induced in DBA/1LacJ mice by intradermal injection of an emulsion of bovine type II collagen and CFA followed by a boost with an intradermal injection of bovine type II collagen emulsified in incomplete Freund's Adjuvant 21 days after the initial immunization. […] At that point animals were randomly assigned to treatment groups and administered the compound of Example 10 (100 mg/kg) PO BID for 28 days. Control groups received celecoxib, vehicle alone or were left untreated. All animals were scored daily in a blinded fashion for visual signs of disease symptoms.
The mean scores of the group treated with the compound of Example 10 were compared to the vehicle-control group values using the Student's t-test.
After completion of the experiments, paws were processed for histology. Two board certified veterinary pathologist evaluated the slides in a blinded fashion. Each paw was assigned a numerical score for both arthritis severity and the general number of joints affected.

CFA-induced hyperalgesia = CFA-induced hyperalgesia model; type: in vivo, rat; conditions: 6 hours after CFA
Description: The sensitivity of peripheral sensory neurons can be enhanced such that they respond to both noxious and non-noxious stimuli resulting in chronic pain (See Julius, D. et al., Nature. 2001; 413:203; Woolf, C. J., et al., Science. […]; 288:1765). Prostaglandins and leukotrienes at the site of inflammation and tissue damage are partially responsible for this potentiation of the pain response. Prostaglandins promote the phosphorylation of ion channels, increasing the excitability and lowering the pain threshold of sensory neurons. Analogously, leukotriene B4 and related arachidonate metabolites of 12-LO bind to and activate the capsaicin receptor (or VR1) ion channel on neurons that respond to heat and low pH (See Piomelli D., TRENDS in Pharmacological Sciences, January 2001; 22(1):17-29). The effect of the compound of Example 10 was measured in the CFA-induced hyperalgesia model, and lipid mediator production was measured at peripheral and central sites.
The animals were dosed with vehicle, the compound of Example 10, naproxen or celecoxib, and then CFA was immediately injected into the hind footpad. To assess hyperalgesia, pressure was applied to the left hind paw at a slow and constant rate using a digital force gauge. Measurements were taken at 0 and 6 hours. The application of the force was stopped when the animal vocalized, or struggled. Readings were taken prior to dosing and CFA injection, and repeated six hours after the CFA injection. Two independent experiments were run and the data were analyzed separately.
The paws were collected at the end of each experiment (6 hours) and the levels of PGE2, LTB4 and TXB2 were measured in the exudates.

[2] = tested on: Ascaris suum antigen-induced bronchoconstriction and AHR; experiment: Sheep model of antigen-induced early and late-phase bronchoconstriction and AHR; type: in vivo
Procedure: In addition to the allergen induced pulmonary inflammation models in rodents, allergen induced changes in lung function are often evaluated in allergic sheep. […] Studies performed in this animal model present strong evidence that the release of arachidonic acid metabolites plays an important role in the development of late bronchial responses to antigen challenge (See Abraham, W. M., et al, Respiration. 1989; 56:48-56). Thus, the compound of Example 10 was evaluated for effects on allergen induced changes in lung function In a sheep model of asthma.
Allergen-induced reversible airway narrowing and AHR are two hallmark features of allergic asthma that can be examined in vivo in a sheep model of asthma. Studies performed in this animal model present strong evidence that the release of arachidonic acid metabolites plays an important role in the development of late bronchial responses to antigen challenge (See Abraham, W. M., et al., Respiration. 1989; 56:48-56). The release of leukotrienes through the LO pathway during the acute bronchial constriction after inhalation of Ascaris suum antigen represents the key factor for the initiation of the subsequent events, namely the late-phase response and the bronchial hyperreactivity. […] In addition, oral administration of a dual LTD4/TXB2 inhibitor can inhibit both the early and late-phase response, as well as AHR to carbachol and histamine (See Abraham, W. M., et al., J Pharmacol Exp Ther. 1988; 247:1004-1011).
The compound of Example 10 was administered at 3 mg/kg BID (PO) 24 h prior to challenge, 2 h prior to challenge and 8 hr post challenge. The mean % increase in airway resistance for 3 individual sheep over the ensuing 8 h period was determined.
The following day, airway hyperresponsiveness (AHR) was assessed in these same treated sheep by determining the cumulative carbachol concentration that increased specific lung resistance by 400%. […] In an extended dosing regimen, compound of Example 10 was administered at 3 mg/kg PO BID for 4 days before challenge, 2 hours before challenge on the fifth day and 8 hr post challenge.

[3] = tested on: primary cerebellar granule neurons; experiment: Oxygen-glucose deprivation (OGD) in cultured cerebellar granule neurons; type: cell-based, rat; conditions: for percent cell death (lactate dehydrogenase release), Avg.: OGD 2 hours, control 14, OGD 51
Procedure: Primary cerebellar granule neurons were isolated from P5-8 rat pups. Briefly, cerebelli were collected and pooled in ice-cold phosphate buffer saline (PBS) without Ca^2+ and Mg^2+. The tissue was finely chopped and transferred to an enzymatic dissociation media containing 20 IU/ml papain in Earle's balanced salt solution (Worthington Biochemical, Freehold, N.J.) and incubated for 30 minutes at 37° C. After enzymatic dissociation, the papain solution was aspirated and the tissue mechanically triturated with a fire-polished Pasteur pipette in complete media [Neurobasal Medium with B-27 supplement (Gibco, Grand Island, N.Y.), penicillin/streptomycin, aphidicolin, glutamate, potassium chloride] containing 2,000 IU/ml DNase and 10 mg/ml ovomucoid protease inhibitor. Single-cell suspensions in complete media were plated on pre-coated poly-L-ornithine/laminin 24-well plates (Becton-Dickinson, Bedford, Mass.) at a density of
5.0×10^5 cells/well. Cells were maintained for two weeks prior to experimentation.
Cultures were treated with Compound A at various concentrations, 60 minutes before OGD. Media was removed and replaced with deoxygenated buffer in an anaerobic chamber (80% nitrogen, 10% hydrogen, 10% carbon dioxide gas mixture). Fresh Compound A, Example 34 or Example 41 was added to the cultures and maintained in the anaerobic chamber for 2 hours. At the end of the incubation, fresh media was exchanged and fresh Compound A was added. Cultures were maintained for an additional 24 hours in a normoxic incubator. Cell death was determined by measuring lactate dehydrogenase release into the media 24 hours later (Roche Biochemicals). In the table below, values are shown for the control, OGD, various concentrations of Compound A, and MK801, a NMDA receptor antagonist, which is a positive control.

[4] = 3 mg/kg BID PO 24 h and 2 h prior to and 8 hr post challenge
[5] = extended regimen: 3 mg/kg PO BID 4 days before challenge, 2 hours before and 8 hr post

`O=C(O)c1ccc(CCCc2c(CCNS(=O)(=O)Cc3ccccc3C(F)(F)F)n(C(c3ccccc3)c3ccccc3)c3ccc(Cl)cc23)cc1` [Example 10, 4-(3-{5-chloro-1-(diphenylmethyl)-2-[2-({[2-(trifluoromethyl)benzyl]sulfonyl}amino)ethyl]-1H-indol-3-yl}propyl)benzoic acid] was tested, and the “group mean severity scores (paw histology)” value ([1]; 100 mg/kg BID) was “lowest group mean severity scores”, the “percentage of unaffected (grade 0) paws (histology)” value ([1]; 100 mg/kg BID) was “highest percentage of unaffected (grade 0) paws” and the “number of animals without disease symptoms” value ([1]; 100 mg/kg PO BID) was “greatest”. For the same molecule, the “disease severity scores vs vehicle control” value ([1]; 100 mg/kg PO BID for 28 days, semi-therapeutic, from day 10) was “statistically significant decrease; also recorded: significant reduction of disease”, the “average severity grade (histology), pathologist 1” value ([1]; 100 mg/kg, vehicle 2.1) was 0.9 and the “average severity grade (histology), pathologist 2” value ([1]; 100 mg/kg, vehicle 3.0) was 2.1. The “pain (paw pressure) compared to vehicle control” value (CFA-induced hyperalgesia; 25 mg/kg) was “statistically significant decrease; also recorded: effective”, the “LTB4 levels in paw exudates” value (CFA-induced hyperalgesia) was “significantly inhibited” and the “TXB2 levels in paw exudates” value (CFA-induced hyperalgesia) was “greater than the inhibition with celecoxib”. For the same molecule, the “PGE2 levels in paw exudates” value (CFA-induced hyperalgesia; Example 10 at 25 mg/kg) was “significantly inhibited”, the “airway hyperresponsiveness (AHR) to carbachol” value [2, 4] was “complete blockade” and the “late asthmatic response (airway resistance)” value [2, 4] was “Complete blockade”. The “AHR to aerosolized carbachol” value [2, 5] was “complete blockade”, the early asthmatic response [2, 5] was “modest but statistically significant inhibition” and the late-phase response [2, 5] was “complete blockade”.

`Cc1cccc(C)c1CS(=O)(=O)NCCc1c(CCCc2ccc(C(=O)O)cc2)c2cc(Cl)ccc2n1C(c1ccccc1)c1ccccc1` [Compound A, 4-{3-[1-benzhydryl-5-chloro-2-(2-{[(2,6-dimethylbenzyl)sulfonyl]amino}ethyl)-1H-indol-3-yl]propyl}benzoic acid] was tested, and the “protection of cultured neurons from OGD-induced cell death” value [3] was “effective in protecting cultured neurons from OGD-induced cell death”, the “percent cell death (lactate dehydrogenase release), Avg.” value (“percent cell death” below) ([3]; 0.1 μM) was 38% and the “percent cell death” value ([3]; 0.3 μM) was 31%. For the same molecule, the “percent cell death” value ([3]; 1 μM) was 27% and the “percent cell death” value ([3]; 3 μM) was 20%.
